# Test results: PubChem BioAssay (NCI)
#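 Following 48 hours of exposure in 96-well plates, responses at five concentrations were used to interpolate endpoints linearly. TGI: concentration producing complete growth inhibition.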
# Tests used:
# Test in all cases: growth of human tumour cells (NCI), 48 h
# UACC-257 melanoma = tested on: UACC-257 melanoma
# MDA-MB-435 = tested on: MDA-MB-435
# A549 NSCLC = tested on: A549 NSCLC
# HCT-15 colon = tested on: HCT-15 colon
# UACC-62 melanoma = tested on: UACC-62 melanoma
# BT-549 breast = tested on: BT-549 breast
# EKVX NSCLC = tested on: EKVX NSCLC
# SF-295 CNS = tested on: SF-295 CNS
# SK-OV-3 ovarian = tested on: SK-OV-3 ovarian
# MDA-N = tested on: MDA-N
# PC-3 prostate = tested on: PC-3 prostate
# UO-31 renal = tested on: UO-31 renal
# SR leukemia = tested on: SR leukemia
# SF-268 CNS = tested on: SF-268 CNS
# CAKI-1 renal = tested on: CAKI-1 renal
# U251 CNS = tested on: U251 CNS
# DU-145 prostate = tested on: DU-145 prostate
# HOP-62 NSCLC = tested on: HOP-62 NSCLC
# LOX IMVI melanoma = tested on: LOX IMVI melanoma
# NCI/ADR-RES ovarian = tested on: NCI/ADR-RES ovarian
# K-562 leukemia = tested on: K-562 leukemia
# A498 renal = tested on: A498 renal
# OVCAR-5 ovarian = tested on: OVCAR-5 ovarian
# NCI-H23 lung = tested on: NCI-H23 lung
# IGROV1 ovarian = tested on: IGROV1 ovarian
# MOLT-4 leukemia = tested on: MOLT-4 leukemia
# SW-620 colon = tested on: SW-620 colon
# HCT-116 colon = tested on: HCT-116 colon
# SNB-19 CNS = tested on: SNB-19 CNS
# ACHN renal = tested on: ACHN renal
# SF-539 CNS = tested on: SF-539 CNS
# HL-60(TB) leukemia = tested on: HL-60(TB) leukemia
# COLO 205 colon = tested on: COLO 205 colon
# OVCAR-3 ovarian = tested on: OVCAR-3 ovarian
# SK-MEL-5 melanoma = tested on: SK-MEL-5 melanoma
# 786-0 renal = tested on: 786-0 renal
# NCI-H226 lung = tested on: NCI-H226 lung
# RXF 393 renal = tested on: RXF 393 renal
# SK-MEL-28 melanoma = tested on: SK-MEL-28 melanoma
# OVCAR-4 ovarian = tested on: OVCAR-4 ovarian
# HT29 colon = tested on: HT29 colon
# M14 melanoma = tested on: M14 melanoma
# OVCAR-8 ovarian = tested on: OVCAR-8 ovarian
# HS 578T breast = tested on: HS 578T breast
# SN12C renal = tested on: SN12C renal
# KM12 colon = tested on: KM12 colon
# RPMI-8226 leukemia = tested on: RPMI-8226 leukemia
# NCI-H460 lung = tested on: NCI-H460 lung
# NCI-H522 lung = tested on: NCI-H522 lung
# HOP-92 NSCLC = tested on: HOP-92 NSCLC
# SK-MEL-2 melanoma = tested on: SK-MEL-2 melanoma
# MALME-3M melanoma = tested on: MALME-3M melanoma
# SNB-75 CNS = tested on: SNB-75 CNS
# CCRF-CEM leukemia = tested on: CCRF-CEM leukemia
# MDA-MB-231 breast = tested on: MDA-MB-231 breast
# TK-10 renal = tested on: TK-10 renal
# HCC-2998 colon = tested on: HCC-2998 colon
# MCF7 breast = tested on: MCF7 breast
compound,measurement,setting,value
Cc1ccc(S(=O)(=O)N2CC(CCN)c3ccccc32)cc1 (stereo unspecified),TGI,UACC-257 melanoma,33.9 µM
same,TGI,MDA-MB-435,27.1 µM
same,TGI,A549 NSCLC,32.5 µM
same,TGI,HCT-15 colon,> 100 µM
same,TGI,UACC-62 melanoma,11.7 µM
same,TGI,BT-549 breast,21.9 µM
same,TGI,EKVX NSCLC,82.4 µM
same,TGI,SF-295 CNS,33.5 µM
same,TGI,SK-OV-3 ovarian,> 44.7 µM
same,TGI,MDA-N,11 µM
same,TGI,PC-3 prostate,29 µM
same,TGI,UO-31 renal,27.4 µM
same,TGI,SR leukemia,> 100 µM
same,TGI,SF-268 CNS,23.8 µM
same,TGI,CAKI-1 renal,23.8 µM
same,TGI,U251 CNS,18.4 µM
same,TGI,DU-145 prostate,31.3 µM
same,TGI,HOP-62 NSCLC,> 29.1 µM
same,TGI,LOX IMVI melanoma,13.5 µM
same,TGI,NCI/ADR-RES ovarian,17 µM
same,TGI,K-562 leukemia,> 60.8 µM
same,TGI,A498 renal,40.6 µM
same,TGI,OVCAR-5 ovarian,24 µM
same,TGI,NCI-H23 lung,> 52.6 µM
same,TGI,IGROV1 ovarian,> 53.4 µM
same,TGI,MOLT-4 leukemia,> 83.9 µM
same,TGI,SW-620 colon,18 µM
same,TGI,HCT-116 colon,25.6 µM
same,TGI,SNB-19 CNS,31.3 µM
same,TGI,ACHN renal,> 53.2 µM
same,TGI,SF-539 CNS,8.59 µM
same,TGI,HL-60(TB) leukemia,> 100 µM
same,TGI,COLO 205 colon,24.3 µM
same,TGI,OVCAR-3 ovarian,26.2 µM
same,TGI,SK-MEL-5 melanoma,17.7 µM
same,TGI,786-0 renal,14.7 µM
same,TGI,NCI-H226 lung,11.6 µM
same,TGI,RXF 393 renal,12.6 µM
same,TGI,SK-MEL-28 melanoma,34.7 µM
same,TGI,OVCAR-4 ovarian,> 100 µM
same,TGI,HT29 colon,8.14 µM
same,TGI,M14 melanoma,8.4 µM
same,TGI,OVCAR-8 ovarian,27 µM
same,TGI,HS 578T breast,54.5 µM
same,TGI,SN12C renal,10.7 µM
same,TGI,KM12 colon,> 100 µM
same,TGI,RPMI-8226 leukemia,> 63.6 µM
same,TGI,NCI-H460 lung,> 64.8 µM
same,TGI,NCI-H522 lung,14.6 µM
same,TGI,HOP-92 NSCLC,52.7 µM
same,TGI,SK-MEL-2 melanoma,13.4 µM
same,TGI,MALME-3M melanoma,17.6 µM
same,TGI,SNB-75 CNS,26.5 µM
same,TGI,CCRF-CEM leukemia,> 100 µM
same,TGI,MDA-MB-231 breast,29.9 µM
same,TGI,TK-10 renal,> 51.1 µM
same,TGI,HCC-2998 colon,30.3 µM
same,TGI,MCF7 breast,29.8 µM
O=c1n(-c2ccccc2)c(=O)n2c(-c3ccccc3)c(-c3ccccc3)n12,TGI,UACC-257 melanoma,> 100 µM
same,TGI,A549 NSCLC,> 100 µM
same,TGI,HCT-15 colon,> 100 µM
same,TGI,UACC-62 melanoma,> 100 µM
same,TGI,BT-549 breast,> 100 µM
same,TGI,EKVX NSCLC,> 100 µM
same,TGI,SF-295 CNS,> 100 µM
same,TGI,SK-OV-3 ovarian,> 100 µM
same,TGI,MDA-N,> 100 µM
same,TGI,PC-3 prostate,> 100 µM
same,TGI,UO-31 renal,> 100 µM
same,TGI,SR leukemia,> 100 µM
same,TGI,CAKI-1 renal,> 100 µM
same,TGI,U251 CNS,> 100 µM
same,TGI,HOP-62 NSCLC,> 100 µM
same,TGI,LOX IMVI melanoma,> 100 µM
same,TGI,NCI/ADR-RES ovarian,> 100 µM
same,TGI,K-562 leukemia,> 100 µM
same,TGI,A498 renal,> 100 µM
same,TGI,OVCAR-5 ovarian,> 100 µM
same,TGI,NCI-H23 lung,> 100 µM
same,TGI,IGROV1 ovarian,> 100 µM
same,TGI,MOLT-4 leukemia,> 100 µM
same,TGI,SW-620 colon,> 100 µM
same,TGI,HCT-116 colon,> 100 µM
same,TGI,SNB-19 CNS,> 100 µM
same,TGI,ACHN renal,> 100 µM
same,TGI,SF-539 CNS,> 100 µM
same,TGI,HL-60(TB) leukemia,> 100 µM
same,TGI,COLO 205 colon,> 100 µM
same,TGI,OVCAR-3 ovarian,> 100 µM
same,TGI,SK-MEL-5 melanoma,> 100 µM
same,TGI,786-0 renal,> 100 µM
same,TGI,NCI-H226 lung,> 100 µM
same,TGI,RXF 393 renal,> 100 µM
same,TGI,SK-MEL-28 melanoma,> 100 µM
same,TGI,OVCAR-4 ovarian,> 100 µM
same,TGI,HT29 colon,> 100 µM
same,TGI,M14 melanoma,> 100 µM
same,TGI,OVCAR-8 ovarian,> 100 µM
same,TGI,HS 578T breast,> 100 µM
same,TGI,SN12C renal,> 100 µM
same,TGI,KM12 colon,> 100 µM
same,TGI,NCI-H460 lung,> 100 µM
same,TGI,HOP-92 NSCLC,> 100 µM
same,TGI,SK-MEL-2 melanoma,> 100 µM
same,TGI,MALME-3M melanoma,> 100 µM
same,TGI,SNB-75 CNS,> 100 µM
same,TGI,CCRF-CEM leukemia,> 100 µM
same,TGI,MDA-MB-231 breast,> 100 µM
same,TGI,TK-10 renal,> 100 µM
same,TGI,HCC-2998 colon,> 100 µM
same,TGI,MCF7 breast,> 100 µM
